According to PubChem BioAssay AID1963958 (Molecular Pharmacology Branch, DTP, NCI, 2024):

Tested on: MDA-MB-231 multicell spheroids, viability
Assay: Anticancer human tumor MDA-MB-231 cell line growth inhibition [PI3K];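 note: spheroids exposed to agents for seven days before reading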;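 for viability, T/C: percent of vehicle control luminescence with DMSO treated spheroids as 100%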
Details: for IC50: curve of first compound; for viability, T/C: stronger effect = lower value
Outline: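 Multi-cell spheroids combine tumor cells with HUVEC and human MSCs, treated with targeted agents alone or with inavolisib, alpelisib, duvelisib or copanlisib. Concentrations fall in half-log steps from at or near clinical Cmax, or from 10 microM where Cmax is unknown; viability read-out.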

## CC1(C)CCC(CN2CCN(c3ccc(C(=O)NS(=O)(=O)c4ccc(NCC5CCOCC5)c([N+](=O)[O-])c4)c(Oc4cnc5[nH]ccc5c4)c3)CC2)=C(c2ccc(Cl)cc2)C1 + CC(Nc1ncnc2nc[nH]c12)c1cc2cccc(Cl)c2c(=O)n1-c1ccccc1
Second compound 0.0316 µM
  IC50: 7.72 µM
Second compound 0.1 µM
  IC50: 6.9 µM
Second compound 0.316 µM
  IC50: 7.92 µM
Second compound 1 µM
  IC50: 6.18 µM
Second compound 3.16 µM
  IC50: 5.26 µM
Second compound 10 µM
  IC50: 3.33 µM
Second compound 0.0316 µM, first compound 0.0316 µM
  viability, T/C: 104%
Second compound 0.0316 µM, first compound 0.1 µM
  viability, T/C: 96.9%
Second compound 0.0316 µM, first compound 0.316 µM
  viability, T/C: 110%
Second compound 0.0316 µM, first compound 1 µM
  viability, T/C: 102%
Second compound 0.0316 µM, first compound 3.16 µM
  viability, T/C: 112%
Second compound 0.0316 µM, first compound 10 µM
  viability, T/C: 33.9%
Second compound 0.1 µM, first compound 0.0316 µM
  viability, T/C: 92.5%
Second compound 0.1 µM, first compound 0.1 µM
  viability, T/C: 92.1%
Second compound 0.1 µM, first compound 0.316 µM
  viability, T/C: 100%
Second compound 0.1 µM, first compound 1 µM
  viability, T/C: 107%
Second compound 0.1 µM, first compound 3.16 µM
  viability, T/C: 103%
Second compound 0.1 µM, first compound 10 µM
  viability, T/C: 26.6%
Second compound 0.316 µM, first compound 0.0316 µM
  viability, T/C: 90.5%
Second compound 0.316 µM, first compound 0.1 µM
  viability, T/C: 99%
Second compound 0.316 µM, first compound 0.316 µM
  viability, T/C: 105%
Second compound 0.316 µM, first compound 1 µM
  viability, T/C: 98.2%
Second compound 0.316 µM, first compound 3.16 µM
  viability, T/C: 108%
Second compound 0.316 µM, first compound 10 µM
  viability, T/C: 37.1%
Second compound 1 µM, first compound 0.0316 µM
  viability, T/C: 85.9%
Second compound 1 µM, first compound 0.1 µM
  viability, T/C: 86.6%
Second compound 1 µM, first compound 0.316 µM
  viability, T/C: 75.6%
Second compound 1 µM, first compound 1 µM
  viability, T/C: 92.4%
Second compound 1 µM, first compound 3.16 µM
  viability, T/C: 91.8%
Second compound 1 µM, first compound 10 µM
  viability, T/C: 23.7%
Second compound 3.16 µM, first compound 0.0316 µM
  viability, T/C: 70%
Second compound 3.16 µM, first compound 0.1 µM
  viability, T/C: 64.7%
Second compound 3.16 µM, first compound 0.316 µM
  viability, T/C: 65.3%
Second compound 3.16 µM, first compound 1 µM
  viability, T/C: 66.6%
Second compound 3.16 µM, first compound 3.16 µM
  viability, T/C: 72.2%
Second compound 3.16 µM, first compound 10 µM
  viability, T/C: 27.7%
Second compound 10 µM, first compound 0.0316 µM
  viability, T/C: 50.6%
Second compound 10 µM, first compound 0.1 µM
  viability, T/C: 50.4%
Second compound 10 µM, first compound 0.316 µM
  viability, T/C: 49.6%
Second compound 10 µM, first compound 1 µM
  viability, T/C: 50.5%
Second compound 10 µM, first compound 3.16 µM
  viability, T/C: 53.7%
Second compound 10 µM, first compound 10 µM
  viability, T/C: 28.4%
